Patent US20020156010A1 (priority 2000, published 2002)

Assays:
[1] = Fasting leptin and IGF-1 (RIA), octreotide-LAR 24 weeks; format: in vivo, human; conditions: Week 24-Week 0; High Responders (n = 8)
[2] = test system: early phase of insulin secretion; conditions: dose-dependent; cited from earlier work
[3] = children with obesity secondary to cranial insult and insulin hypersecretion; cited from earlier work
[4] = long-term usage, acromegaly or other disorders; cited from earlier work
[5] = biological target: somatostatin receptor-5 (SSTR5) (Homo sapiens, UniProt P35346); conditions: on the β-cell; cited from earlier work
[6] = Safety: blood pressure, glucose (FBG, CBG, HbA1c, IGT), TSH, free T4, lipids, adverse events, octreotide-LAR 24 weeks
Protocol: Inclusion criteria were ages 18-65 years and body mass index (BMI)≧35. The screening evaluation included a complete history and physical examination, and the following studies: Comprehensive Metabolic Panel (CMP), serum glucose 2 hours after an 75 gm oral glucose load, gallbladder ultrasound, and urine pregnancy test (if female). Exclusion criteria included gallstones, hypertension, diabetes mellitus (by ADA criteria), renal or liver disease, or use of chronic medications except for thyroid or estrogen supplementation. Subjects were evaluated every four weeks for 24 weeks. […]
Chemical Analyses: Serum glucose during OGTT was measured by the glucose oxidase method (Kadish, et al., “A new and rapid method for the determination of glucose by measurement of rate of oxygen consumption,” Clin Chem, 14:116-119 (1968), which is hereby incorporated by reference in its entirety). Serum immunoreactive insulin (μU/ml) and C-peptide (ng/ml) levels from each OGTT sample were measured by standard double-antibody radioimmunoassay (RIA) (Linco Research; St Louis, Mo.). Leptin was measured by double antibody RIA, and IGF-1 by competitive binding RIA (Endocrine Sciences; Calabasas Hills, Calif.). […]

somatostatin receptor-5 (SSTR5), sequence (P35346 whole entry, species assumed): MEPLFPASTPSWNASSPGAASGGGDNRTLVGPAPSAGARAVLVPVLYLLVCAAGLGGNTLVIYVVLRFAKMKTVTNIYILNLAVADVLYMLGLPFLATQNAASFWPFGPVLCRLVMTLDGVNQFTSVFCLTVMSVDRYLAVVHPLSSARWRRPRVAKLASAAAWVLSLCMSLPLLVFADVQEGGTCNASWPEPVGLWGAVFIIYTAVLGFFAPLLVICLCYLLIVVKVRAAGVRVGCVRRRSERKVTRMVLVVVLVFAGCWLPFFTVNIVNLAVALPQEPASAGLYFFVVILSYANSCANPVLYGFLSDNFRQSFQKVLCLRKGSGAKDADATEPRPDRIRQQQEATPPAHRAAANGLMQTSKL

D-phenylalanyl-L-cysteinyl-L-phenylalanyl-D-tryptophyl-L-lysyl-L-threonyl-N-[2-hydroxy-1(hydroxymethyl)propyl]-L-cysteinamide cyclic (2=>7)-disulfide [octreotide]
Δ IGF-1 [1]: least suppression
Early phase of insulin secretion [2]: inhibit
Weight [3]: promotes weight loss
Weight and fat mass [4]: minimal positive effect
Binding to somatostatin receptor-5 (SSTR5) [5]: binds
HR subjects demonstrating IGT ([6]; at Week 0 and at Week 24): none
Percent of subjects with IGT ([6]; end of the study (32% before treatment)): 73%
